# Laboratory results reported in patent US20200095241A1, “SUBSTITUTED 1,2,4-THIADIAZOLYLPYRROLONES AND 1,2,4-THIADIAZOLYLHYDANTOINS AND SALTS THEREOF AND USE THEREOF AS HERBICIDES” (Bayer CropScience Aktiengesellschaft, priority 2016, published 2020).
# Columns and labels:
# Viola tricolor [1] = assay: Pre-emergence herbicidal action; format: in vivo; conditions: Viola tricolor, 504 h, 320 g/ha, after about 3 weeks, read-out: Viola tricolor, herbicidal effect scored visually
# Text: (§1) Seeds of monocotyledonous and dicotyledonous weed plants and crop plants were placed in plastic or organic planting pots and covered with soil. The compounds of the invention, formulated in the form of wettable powders (WP) or as emulsion concentrates (EC), were then applied onto the surface of the covering soil as aqueous suspension or emulsion with addition of 0.5% additive at a water application rate of 600 l/ha (converted). After the treatment, the pots were placed in a greenhouse and kept under good growth conditions for the test plants. After about 3 weeks, the effect of the preparations was scored visually in comparison with untreated controls as percentages. For example, 100% activity=the plants have died, 0% activity=like control plants. Tables B1 to B15 below show the effects of selected compounds of the general formula (I) according to Tables I.1 to I.44 on various harmful plants and an application rate corresponding to 1280 g/ha or 320 g/ha, which were obtained by the experimental procedure mentioned above.
# Stellaria media [2] = assay: Pre-emergence herbicidal action; format: in vivo; conditions: after about 3 weeks
# Text: as §1
# Matricaria inodora = assay: Pre-emergence herbicidal action; format: in vivo; conditions: 1280 g/ha, after about 3 weeks
# Text: as §1
# photosystem II (PS II) = molecular target: T1, photosystem II (PS II) (Spinacia oleracea, UniProt P69560); assay: Measurement of the PS II activity in thylakoid membranes (DCPIP reduction); format: biochemical; conditions: 100 μM test compound, spinach thylakoid membranes, DCPIP 120 μM, 10 min at 22° C. with exposure to light; for inhibition at 100 µM (stock): read-out: Effect (inhibition of PS II activity)
# T1 construct: the chloroplasts were osmotically ruptured and the thylakoid membranes were then obtained by centrifugation; from tissue; host or cells: fresh spinach leaves; thylakoid membranes isolated from chloroplasts
# Description: Cooled fresh spinach leaves were comminuted and homogenized in 50 mM phosphate buffer, pH 6.8. 10 mM KCl, 0.34 M sucrose (sucrose buffer) (blender, 1 g of plant material/ml). The homogenate was subsequently filtered through 4 layers of Miracloth and the chloroplasts were isolated by centrifugation, i.e. 10 min of centrifugation at 4400×g (4° C.). The sediment was suspended in 25 ml of sucrose buffer and re-centrifuged for 10 min at 4400×g (4° C.). The sediment was then suspended in 40 ml of 50 mM phosphate buffer, pH 6.8, 10 mM KCl, without sucrose. In this step, the chloroplasts were osmotically ruptured and the thylakoid membranes were then obtained by centrifugation (10 min, 4400×g, 4° C.). The membrane sediment was finally suspended in 20 ml of 50 mM phosphate buffer, pH 6.8, 10 mM KCl. Following protein determination and activity determination, the membrane suspension was divided into aliquots and frozen in liquid nitrogen. The aliquots were stored at −80° C. Under these conditions, the photosystem II preparation was storage stable for at least three months. The activity determination of photosystem II (PS II) was then carried out using the following test principle:
# The electron transfer from PS II to an artificial electron acceptor, 2,6-dichlorophenolindophenol (DCPIP), was measured with exposure to light. The concentration of the blue oxidized form of DCPIP was determined spectrophotometrically at wavelength λ=595 nm. […] The activity determination was carried out in microtiter plates (96 cavities) in a reaction volume of 200 μl. Here, 155 μl of dilute membrane suspension were initially charged in 50 mM of phosphate buffer, pH 6.8, 10 mM KCl. Depending on the activity of the PS II preparation, the dilution was adjusted such that the measurement of the decrease in absorption (λ=595 nm) was linear for at least 10 min. In each case 5 μl solution of the test compounds of a concentration of 100 μM in DMSO were added to the enzyme suspension; controls contained 5 μl DMSO; the final concentration of DMSO in the reaction batch was thus 2.5% (v/v); this concentration had no adverse effect on the enzymatic activity. On each microtiter plate, a known PS II inhibitor, for example metribuzin, was used as standard, which allowed the quality of the PS II test to be assessed. The reaction was started by addition of 40 μl DCPIP solution (600 μM in distilled water); the final concentration of DCPIP was 120 μM. Measurement of absorption was carried out over a period of 10 min at 22° C. and with exposure to light. Using metribuzin as comparative substance, the results for the efficacy of the compounds of the general formula (I) at 100 μM are stated in the table below using the following classification: ++++ (inhibition≥90%), +++ ([…]≥70%), ++ (70%>inhibition≥50%), + (50%>inhibition≥30%).
# Viola tricolor [3] = assay: Post-emergence herbicidal action; format: in vivo; conditions: 504 h, 320 g/ha, about 3 weeks after treatment, read-out: Viola tricolor, herbicidal activity rated visually
# Description: (§2) Seeds of monocotyledonous and dicotyledonous weeds and crop plants were placed in sandy loam in plastic or wood-fiber pots, covered with soil and cultivated in a greenhouse under controlled growth conditions. 2 to 3 weeks after sowing, the test plants were treated at the one-leaf stage. The compounds of the invention, formulated in the form of wettable powders (WP) or as emulsion concentrates (EC), were then sprayed onto the green parts of the plants as aqueous suspension or emulsion with addition of 0.5% additive at a water application rate of 600 l/ha (converted). After the test plants had been kept in the greenhouse under optimum growth conditions for about 3 weeks, the activity of the preparations was rated visually in comparison to untreated controls. For example, 100% activity=the plants have died, 0% activity=like control plants. Tables A1 to A12 below show the effects of selected compounds of the general formula (I) according to Tables I.1 to I.44 on various harmful plants and an application rate corresponding to 1280 g/ha or 320 g/ha, which were obtained by the experimental procedure mentioned above.
# Setaria viridis [4] = assay: Post-emergence herbicidal action; format: in vivo; conditions: Setaria viridis, 504 h, 320 g/ha, about 3 weeks after treatment, read-out: Setaria viridis, herbicidal activity rated visually
# Description: as §2
# Stellaria media [5] = assay: Post-emergence herbicidal action; format: in vivo; conditions: about 3 weeks after treatment
# Description: as §2
# Poa annua = assay: Pre-emergence herbicidal action; format: in vivo; conditions: 1280 g/ha, after about 3 weeks
# Text: as §1
# Abutilon theophrasti = assay: Post-emergence herbicidal action; format: in vivo; conditions: 320 g/ha, about 3 weeks after treatment
# Description: as §2
# Setaria viridis [6] = assay: Pre-emergence herbicidal action; format: in vivo; conditions: 1280 g/ha, after about 3 weeks
# Text: as §1
# Amaranthus retroflexus = assay: Post-emergence herbicidal action; format: in vivo; conditions: 320 g/ha, about 3 weeks after treatment
# Description: as §2
structure (smiles),measurement,setting,value
"CCc1nsc(N2C(=O)C(C)=C(C)C2O)n1 (centres unmarked) [I.2-3, 3,4-Dimethyl-5-hydroxy-1-(3-ethyl-1,2,4-thiadiazol-5-yl)-1,5-dihydro-2H-pyrrol-2-one]",pest or weed control at 320 g/ha,Viola tricolor [1],100%
same,pest or weed control at 320 g/ha,"Stellaria media [2]; Stellaria media, 504 h, 320 g/ha, read-out: Stellaria media, herbicidal effect scored visually",90%
same,pest or weed control at 1280 g/ha,"Matricaria inodora; Tripleurospermum inodorum, 504 h, read-out: Matricaria inodora, herbicidal effect scored visually",100%
same,inhibition at 100 µM (stock),photosystem II (PS II),> 90%
same,pest or weed control at 320 g/ha,Viola tricolor [3],100%
same,pest or weed control at 320 g/ha,Setaria viridis [4],80%
same,pest or weed control at 320 g/ha,"Stellaria media [5]; Stellaria media, 504 h, 320 g/ha, read-out: Stellaria media, herbicidal activity rated visually",80%
CC1=C(C)C(O)N(c2nc(-c3ccccc3)ns2)C1=O (centres unmarked) [I.2-21],"Poa annua, herbicidal effect scored visually",Poa annua,90%
same,"Stellaria media, herbicidal effect scored visually",Stellaria media [2]; 1280 g/ha,100%
same,"Matricaria inodora, herbicidal effect scored visually",Matricaria inodora,90%
same,Effect (inhibition of PS II activity),photosystem II (PS II),+++ (90%≥inhibition≥70%)
same,"Abutilon theophrasti, herbicidal activity rated visually",Abutilon theophrasti,100%
COc1ccc(-c2nsc(N3C(=O)C(C)=C(C)C3O)n2)cc1 (centres unmarked) [I.2-83],Effect (inhibition of PS II activity),photosystem II (PS II),++++ (inhibition≥90%)
"COCc1nsc(N2C(=O)C(C)=C(C)C2O)n1 (centres unmarked) [I.2-122, 3,4-Dimethyl-5-hydroxy-1-(3-methoxymethyl-1,2,4-thiadiazol-5-yl)-1,5-dihydro-2H-pyrrol-2-one]",inhibition at 100 µM (stock),photosystem II (PS II),50 to 70%
CC1=C(C)C(O)N(c2nc(C(C)(C)C)ns2)C1=O (centres unmarked) [I.2-288],"Poa annua, herbicidal effect scored visually",Poa annua,90%
same,"Setaria viridis, herbicidal effect scored visually",Setaria viridis [6],100%
same,"Stellaria media, herbicidal effect scored visually",Stellaria media [2]; 1280 g/ha,100%
same,"Matricaria inodora, herbicidal effect scored visually",Matricaria inodora,90%
same,Effect (inhibition of PS II activity),photosystem II (PS II),+++ (90%≥inhibition≥70%)
CSc1nsc(N2C(=O)C(C)=C(C)C2O)n1 (centres unmarked) [I.2-303],"Poa annua, herbicidal effect scored visually",Poa annua,90%
same,"Stellaria media, herbicidal effect scored visually",Stellaria media [2]; 1280 g/ha,100%
same,"Matricaria inodora, herbicidal effect scored visually",Matricaria inodora,100%
same,Effect (inhibition of PS II activity),photosystem II (PS II),+++ (90%≥inhibition≥70%)
same,"Stellaria media, herbicidal activity rated visually",Stellaria media [5]; 1280 g/ha,100%
same,"Amaranthus retroflexus, herbicidal activity rated visually",Amaranthus retroflexus,100%
same,"Abutilon theophrasti, herbicidal activity rated visually",Abutilon theophrasti,100%
CC1=C(C)C(O)N(c2nc(C3(C)CC3)ns2)C1=O (centres unmarked) [I.2-335],Effect (inhibition of PS II activity),photosystem II (PS II),++++ (inhibition≥90%)
CC1=C(C)C(O)N(c2nc(SCCOC(F)(F)C(F)(F)F)ns2)C1=O (centres unmarked) [I.2-339],Effect (inhibition of PS II activity),photosystem II (PS II),++++ (inhibition≥90%)
CCCc1nsc(N2C(=O)C(Cl)=C(C)C2O)n1 (centres unmarked) [I.3-4],Effect (inhibition of PS II activity),photosystem II (PS II),++++ (inhibition≥90%)
COCc1nsc(N2C(=O)C(Cl)=C(C)C2O)n1 (centres unmarked) [I.3-122],Effect (inhibition of PS II activity),photosystem II (PS II),+++ (90%≥inhibition≥70%)
"CC1=C(Cl)C(=O)N(c2nc(C3(C)CC3)ns2)C1O (centres unmarked) [I.3-335, 3-Chloro-4-methyl-5-hydroxy-1-[3-(1-methylcycloprop-1-yl)-1,2,4-thiadiazol-5-yl]-1,5-dihydro-2H-pyrrol-2-one]",inhibition at 100 µM (stock),photosystem II (PS II),> 90%
CC1=C(Cl)C(O)N(c2nc(C)ns2)C1=O (centres unmarked) [I.4-2],Effect (inhibition of PS II activity),photosystem II (PS II),+++ (90%≥inhibition≥70%)
CCc1nsc(N2C(=O)C(C)=C(Cl)C2O)n1 (centres unmarked) [I.4-3],Effect (inhibition of PS II activity),photosystem II (PS II),++++ (inhibition≥90%)
CCCc1nsc(N2C(=O)C(C)=C(Cl)C2O)n1 (centres unmarked) [I.4-4],Effect (inhibition of PS II activity),photosystem II (PS II),++++ (inhibition≥90%)
"CC1=C(Cl)C(O)N(c2nc(C3CC3)ns2)C1=O (centres unmarked) [I.4-11, 4-chloro-3-methyl-5-hydroxy-1-(3-cyclopropyl-1,2,4-thiadiazol-5-yl)-1,5-dihydro-2H-pyrrol-2-one]",inhibition at 100 µM (stock),photosystem II (PS II),> 90%
"CC1=C(Cl)C(O)N(c2nc(C3(C)CC3)ns2)C1=O (centres unmarked) [I.4-335, 4-chloro-3-methyl-5-hydroxy-1-[3-(1-methylcycloprop-1-yl)-1,2,4-thiadiazol-5-yl]-1,5-dihydro-2H-pyrrol-2-one]",inhibition at 100 µM (stock),photosystem II (PS II),50 to 70%
COc1nsc(N2C(=O)C(C)=C(Cl)C2O)n1 (centres unmarked) [I.4-363],Effect (inhibition of PS II activity),photosystem II (PS II),++++ (inhibition≥90%)
"COC(C)(C)c1nsc(N2C(=O)C(C)=C(Cl)C2O)n1 (centres unmarked) [I.4-370, 4-Chloro-3-methyl-5-hydroxy-1-[3-(2-methoxyprop-2-yl)-1,2,4-thiadiazol-5-yl]-1,5-dihydro-2H-pyrrol-2-one]",pest or weed control at 1280 g/ha,"Stellaria media [2]; Stellaria media, 504 h, 1280 g/ha, read-out: Stellaria media, herbicidal effect scored visually",100%
CCc1nsc(N2C(=O)C(Br)=C(C)C2O)n1 (centres unmarked) [I.5-3],Effect (inhibition of PS II activity),photosystem II (PS II),++++ (inhibition≥90%)
CCCc1nsc(N2C(=O)C(Br)=C(C)C2O)n1 (centres unmarked) [I.5-4],Effect (inhibition of PS II activity),photosystem II (PS II),++++ (inhibition≥90%)
CCc1nsc(N2C(=O)C(C)=C(Br)C2O)n1 (centres unmarked) [I.6-3],Effect (inhibition of PS II activity),photosystem II (PS II),++++ (inhibition≥90%)
CCCc1nsc(N2C(=O)C(C)=C(Br)C2O)n1 (centres unmarked) [I.6-4],Effect (inhibition of PS II activity),photosystem II (PS II),++++ (inhibition≥90%)
CC1=C(Br)C(O)N(c2nc(C3CC3)ns2)C1=O (centres unmarked) [I.6-11],Effect (inhibition of PS II activity),photosystem II (PS II),++++ (inhibition≥90%)
O=C1C(Cl)=C(C2CCCCC2)C(O)N1c1nc(C2CC2)ns1 (centres unmarked) [I.9-11],Effect (inhibition of PS II activity),photosystem II (PS II),++ (70%>inhibition≥50%)
CC(C)c1nsc(N2C(=O)C(C3CCCCC3)=C(Cl)C2O)n1 (centres unmarked) [I.10-5],Effect (inhibition of PS II activity),photosystem II (PS II),+++ (90%≥inhibition≥70%)
CCc1nsc(N2C(=O)N(C)CC2O)n1 (centres unmarked) [I.13-3],Effect (inhibition of PS II activity),photosystem II (PS II),+++ (90%≥inhibition≥70%)
CN1CC(O)N(c2nc(C(C)(C)C)ns2)C1=O (centres unmarked) [I.13-288],Effect (inhibition of PS II activity),photosystem II (PS II),++ (70%>inhibition≥50%)
